In US20160030562A1, “METHODS TO ENHANCE CANCER TREATMENT” (INTERNATIONAL BUSINESS MACHINES CORPORATION, priority 2011, published 2016):

Test system: breast cancer
Assay: Treatment of Patient A (Stage II breast cancer)
Type: in vivo, human
Details: tamoxifen alone, 20 mg a day, year 3 of 5-year treatment
Method: Patient A has Stage II breast cancer. Patient A is in year 3 of a 5-year treatment with tamoxifen (tamoxifen prescribed at 20 mg a day for 5 years) but no regression in patient's breast cancer is apparent. Additional treatment is desired.
Cholesterol deprivation therapy is prescribed for Patient A. Patient A prefers a vegan diet, so Patient A's diet includes no meat or animal products, no saturated fats, and monounsaturated and polyunsaturated fats in moderation. Vegetable proteins, fruits, vegetables, and grains are primary food sources. A multivitamin with vitamin D and calcium is prescribed. […] CDT is prescribed for 8 months.
Patient A is treated with anti-CD cancer cell antibodies. Initial antibody loading dose of 1.3 g antibody preparation is administered as a two hour IV infusion, followed by weekly doses of about 0.6 g administered as a 30 minute infusion of the antibody preparation. Antibody and CDT treatments continue for 6 months.
As a result of combination treatment with CDT diet, statins, anti-CD cancer cell antibodies, and tamoxifen, Patient A's breast cancer regresses.

Question: CC/C(=C(\c1ccccc1)c1ccc(OCCN(C)C)cc1)c1ccccc1 [tamoxifen] was tested. Which “regression of breast cancer” value did it give?
Answer: Its value is “no regression”.
